The text below walks through data of patent publication US20230183243A1, “HETEROARYL DERIVATIVES AND PHARMACEUTICAL COMPOSITION COMPRISING SAME AS ACTIVE INGREDIENT” (VORONOI INC., priority 2019, published 2023).

The test system of one test is MDA-MB-231 cells. Briefly: Inhibition of proliferation of triple-negative breast cancer cells, CellTiter-Glo. The class given is cell-based. As to conditions: Homo sapiens, 120 h; MDA-MB-231, cultured for 5 days. The essentials:
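MDA-MB-231 cells pre-cultured 24 h (5% CO2, 37 °C), then exposed to compound for 5 days at 12 three-fold dilutions, final 10 μM to 0.05 nM. Viability read by CellTiter-Glo luminescence after 10 min at 37 °C; growth inhibition calculated relative to untreated solvent-control cells.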
(Cellular ATP, detected with luciferase, serves as a proxy for viable cell number.)

The subject of another test is SHP-77. The experiment in a line: Inhibition of proliferation of small cell lung cancer cells, CellTiter-Glo. As to conditions: Homo sapiens, SHP77, 120 h; SHP-77, cultured for 5 days. Format: cell-based. A digest of the protocol:
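SHP-77 cells at 2,000–3,000 cells/well, cultured 24 h at 37° C, 5% CO2, then given 12 threefold compound dilutions, final 10 μM to 0.05 nM, for 5 days. Viability by CellTiter-Glo luminescence relative to solvent control. GI50 from concentration–response.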

The target of a further test is T1, TTK (Homo sapiens, UniProt P33981).
T1 sequence (P33981 1-857): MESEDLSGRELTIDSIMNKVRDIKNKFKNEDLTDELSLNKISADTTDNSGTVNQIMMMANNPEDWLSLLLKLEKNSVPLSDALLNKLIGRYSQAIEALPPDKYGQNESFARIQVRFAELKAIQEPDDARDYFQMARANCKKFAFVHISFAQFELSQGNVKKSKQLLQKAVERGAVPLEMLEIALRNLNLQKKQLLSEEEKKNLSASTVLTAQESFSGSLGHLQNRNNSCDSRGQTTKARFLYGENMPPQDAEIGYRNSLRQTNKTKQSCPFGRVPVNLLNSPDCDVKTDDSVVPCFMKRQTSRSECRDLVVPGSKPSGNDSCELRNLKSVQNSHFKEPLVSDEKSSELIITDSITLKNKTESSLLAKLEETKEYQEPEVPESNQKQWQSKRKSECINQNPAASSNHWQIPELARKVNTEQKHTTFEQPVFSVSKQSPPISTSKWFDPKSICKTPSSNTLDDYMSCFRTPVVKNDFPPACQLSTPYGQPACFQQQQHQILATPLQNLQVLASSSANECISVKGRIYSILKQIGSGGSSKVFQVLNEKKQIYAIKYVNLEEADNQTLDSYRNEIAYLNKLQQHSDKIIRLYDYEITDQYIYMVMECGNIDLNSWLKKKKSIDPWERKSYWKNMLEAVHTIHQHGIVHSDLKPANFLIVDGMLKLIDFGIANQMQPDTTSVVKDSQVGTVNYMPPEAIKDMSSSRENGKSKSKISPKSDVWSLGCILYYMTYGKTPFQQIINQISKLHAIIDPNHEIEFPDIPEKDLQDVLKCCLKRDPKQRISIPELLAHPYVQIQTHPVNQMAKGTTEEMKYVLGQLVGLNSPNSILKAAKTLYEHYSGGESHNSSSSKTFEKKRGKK
Briefly: TTK enzyme activity, ADP-Glo kinase assay. Format: biochemical. The arrangement: purchased SignalChem T20-10G. Conditions: purified human TTK, ATP 10 μM, 25° C., 2 hours. The essentials: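 Purified human TTK (25 ng) incubated with 10 μM ATP and substrate (0.2 μg) for 2 h at 25 °C in Tris-HCl pH 7.4, MgCl2, BSA, DTT buffer. ADP formation read by ADP-Glo; inhibition calculated against untreated solvent control.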

For `Cn1cc(-c2ccc(Nc3nc(NC4C[C@H]5CC[C@@H]4C5)c4c(C#N)c[nH]c4n3)c3c2OCCO3)cn1` (stereo partly drawn) [Example 147, 4-(((1R,4S)-bicyclo[2.2.1]heptan-2-yl)amino)-2-((8-(1-methyl-1H-pyrazol-4-yl)-2,3-dihydrobenzo[b][1,4]dioxin-5-yl)amino)-7H-pyrrolo[2,3-d] pyrimidine-5-carbonitrile], the GI50 in the test on MDA-MB-231 cells and in the test with SHP-77 was < 100 nM in each case. Further, the IC50 against TTK is < 50 nM.

For the compound `Cn1nccc1-c1ccc(Nc2nc(NC3CCCC3)c3c(C(F)(F)F)c[nH]c3n2)c2c1OCCO2` [Example 133, N^4-cyclopentyl-N^2-(8-(1-methyl-1H-pyrazol-5-yl)-2,3-dihydrobenzo[b][1,4]dioxin-5-yl)-5-(trifluoromethyl)-7H-pyrrolo[2,3-d] pyrimidine-2,4-diamine], the GI50 in the test on MDA-MB-231 cells and in the test on SHP-77 was 100 to 1000 nM throughout. The compound also displayed an IC50 on TTK of 200 to 1000 nM.

As for `C=CC(=O)Nc1cc(-c2ccnn2C)ccc1Nc1nc(NC2CCCC2)c2c(C#N)c[nH]c2n1` [Example 142, N-(2-((5-cyano-4-(cyclopentylamino)-7H-pyrrolo[2,3-d]pyrimidin-2-yl)amino)-5-(1-methyl-1H-pyrazol-5-yl)phenyl)acrylamide], the GI50 in the test with MDA-MB-231 cells and in the test on SHP-77 was 100 to 1000 nM throughout. For the same compound, on TTK, the IC50 is < 50 nM.

For `Cn1nccc1-c1ccc(Nc2nc(NCC3CCC3)c3c(C#N)c[nH]c3n2)c2c1OCCO2` [Example 100, 4-((cyclobutylmethyl)amino)-2-((8-(1-methyl-1H-pyrazol-5-yl)-2,3-dihydrobenzo[b][1,4]dioxin-5-yl)amino)-7H-pyrrolo[2,3-d] pyrimidine-5-carbonitrile], the GI50 in the test on MDA-MB-231 cells and in the test with SHP-77 was < 100 nM in each case. The compound also came in with an IC50 on TTK of 50 to 200 nM.

Turning to `COc1cc(-c2ccnn2C)c(F)cc1Nc1nc(NC2CCOCC2)c2c(C#N)c[nH]c2n1` [Example 122, 2-((5-fluoro-2-methoxy-4-(1-methyl-1H-pyrazol-5-yl)phenyl)amino)-4-((tetrahydro-2H-pyran-4-yl)amino)-7H-pyrrolo[2,3-d] pyrimidine-5-carbonitrile], the GI50 in the test on MDA-MB-231 cells and in the test on SHP-77 was < 100 nM in each case. Further, the IC50 against TTK was < 50 nM.

For the compound `N#Cc1c[nH]c2nc(Nc3ccc(N4CCCCS4(=O)=O)cc3)nc(NC3CCOCC3)c12` [Example 164, 2-((4-(1,1-dioxido-1,2-thiazinan-2-yl)phenyl)amino)-4-((tetrahydro-2H-pyran-4-yl)amino)-7H-pyrrolo[2,3-d] pyrimidine-5-carbonitrile], the concentration for 50% growth inhibition (GI50) with MDA-MB-231 cells and with SHP-77 was < 100 nM throughout. The IC50 against TTK is < 50 nM.

Regarding `COc1cc(Nc2nc(NC3CCCC3)c3c(C#N)c[nH]c3n2)ccc1-c1c(C)noc1C` [Example 139, 4-(cyclopentylamino)-2-((4-(3,5-dimethylisoxazol-4-yl)-3-methoxyphenyl)amino)-7H-pyrrolo[2,3-d] pyrimidine-5-carbonitrile], the results for the GI50 in the test on MDA-MB-231 cells and in the test on SHP-77 were 100 to 1000 nM and < 100 nM, respectively. The compound also showed an IC50 against TTK of 200 to 1000 nM.

On to `Cn1nccc1-c1ccc(Nc2nc(NC3CCOCC3)c3c(C#N)c[nH]c3n2)c2c1OCCO2` [Example 40, 2-((8-(1-methyl-1H-pyrazol-5-yl)-2,3-dihydrobenzo[b][1,4]dioxin-5-yl)amino)-4-((tetrahydro-2H-pyran-4-yl)amino)-7H-pyrrolo[2,3-d] pyrimidine-5-carbonitrile], for which the GI50 in the test with MDA-MB-231 cells and in the test with SHP-77 was < 100 nM throughout. Also, the IC50 against TTK is < 50 nM.

`COc1cc(-c2ccnn2C)ccc1Nc1nc(NC2CCC(F)(F)C2)c2c(C#N)c[nH]c2n1` (stereo not drawn) [Example 110, 4-((3,3-difluorocyclopentyl)amino)-2-((2-methoxy-4-(l-methyl-1H-pyrazol-5-yl)phenyl)amino)-7H-pyrrolo[2,3-d] pyrimidine-5-carbonitrile]: the GI50 in the test on MDA-MB-231 cells and in the test with SHP-77 was < 100 nM throughout. Further, the IC50 on TTK was < 50 nM.

Consider `COc1cc(Nc2nc(NC3CCOCC3)c3c(C#N)c[nH]c3n2)ccc1-c1c(C)noc1C` [Example 138], for which the GI50 with MDA-MB-231 cells and in the test with SHP-77 was < 100 nM throughout. The IC50 against TTK was < 50 nM.

As for `COc1cc(-c2ccnn2C)ccc1Nc1nc(NC2CCCC2)c2c(C#N)c[nH]c2n1` [Example 16, 4-(cyclopentylamino)-2-((2-methoxy-4-(1-methyl-1H-pyrazol-5-yl)phenyl)amino)-7H-pyrrolo[2,3-d] pyrimidine-5-carbonitrile], the GI50 in the test with MDA-MB-231 cells and with SHP-77 was < 100 nM in each case. Besides, the IC50 on TTK was < 50 nM.

`COc1cc(-c2c(C)noc2C)ccc1Nc1nc(NC2C[C@H]3CC[C@@H]2C3)c2c(C#N)c[nH]c2n1` (stereo partly drawn) [Example 146, 4-(((1R,4S)-bicyclo[2.2.1]heptan-2-yl)amino)-2-((4-(3,5-dimethylisoxazol-4-yl)-2-methoxyphenyl)amino)-7H-pyrrolo[2,3-d] pyrimidine-5-carbonitrile]: the GI50 in the test with MDA-MB-231 cells and in the test on SHP-77 was < 100 nM throughout. Moreover, the half-maximal inhibitory concentration (IC50) on TTK was < 50 nM.

Regarding `COc1cc(-c2nncn2C)ccc1Nc1nc(NC2CCOCC2)c2c(C#N)c[nH]c2n1` [Example 90, 2-((2-methoxy-4-(4-methy1-4H-1,2,4-triazol-3-yl)phenyl)amino)-4-((tetrahydro-2H-pyran-4-yl)amino)-7H-pyrrolo[2,3-d] pyrimidine-5-carbonitrile], the GI50 with MDA-MB-231 cells and in the test with SHP-77 was < 100 nM throughout. In addition, the IC50 at TTK was < 50 nM.

Regarding `COc1cc(-c2ccnn2C)ccc1Nc1nc(NC2CCCC(F)(F)C2)c2c(C#N)c[nH]c2n1` (stereo not drawn) [Example 152, 4-((3,3-difluorocyclohexyl)amino)-2-((2-methoxy-4-(1-methyl-1H-pyrazol-5-yl)phenyl)amino)-7H-pyrrolo[2,3-d] pyrimidine-5-carbonitrile], the GI50 in the test on MDA-MB-231 cells and with SHP-77 was < 100 nM each time. The same compound came in with an IC50 against TTK of 50 to 200 nM.

As for `N#Cc1c[nH]c2nc(Nc3ccc(N4CCCS4(=O)=O)cc3)nc(NC3CCCC3)c12` [Example 158, 4-(cyclopentylamino)-2-((4-(1,1-dioxidoisothiazolidin-2-yl)phenyl)amino)-7H-pyrrolo[2,3-d] pyrimidine-5-carbonitrile], the GI50 with MDA-MB-231 cells and with SHP-77 was < 100 nM in each case. Besides, on TTK, the IC50 was < 50 nM.

For the compound `Cn1nccc1-c1ccc(Nc2nc(NC3CCOCC3)c3c(C(F)(F)F)c[nH]c3n2)c2c1OCCO2` [Example 107, N^2-(8-(1-methyl-1H-pyrazol-5-yl)-2,3-dihydrobenzo[b][1,4]dioxin-5-yl)-N^4-(tetrahydro-2H-pyran-4-yl)-5-(trifluoromethyl)-7H-pyrrolo[2,3-d] pyrimidine-2,4-diamine], the GI50 in the test on MDA-MB-231 cells and in the test with SHP-77 was < 100 nM each time. The same compound came in with an IC50 at TTK of 50 to 200 nM.

In the case of `COc1cc(-c2c(C)noc2C)c(F)cc1Nc1nc(NC2CCCC2)c2c(C#N)c[nH]c2n1` [Example 104, 4-(cyclopentylamino)-2-((4-(3,5-dimethylisoxazol-4-yl)-5-fluoro-2-methoxyphenyl)amino)-7H-pyrrolo[2,3-d] pyrimidine-5-carbonitrile], the GI50 with MDA-MB-231 cells and with SHP-77 was 100 to 1000 nM each time. For the same compound, the IC50 against TTK was 50 to 200 nM.

Turning to `Cn1nccc1-c1ccc(Nc2nc(NC3CCCC3)c3c(Cl)c[nH]c3n2)c2c1OCCO2` [Example 128, 5-chloro-N^4-cyclopentyl-N^2-(8-(1-methyl-1H-pyrazol-5-yl)-2,3-dihydrobenzo[b][1,4]dioxin-5-yl)-7H-pyrrolo[2,3-d] pyrimidine-2,4-diamine], the values for the GI50 in the test with MDA-MB-231 cells and in the test with SHP-77 were 100 to 1000 nM and < 100 nM, respectively. At TTK, this compound gave an IC50 of 50 to 200 nM.

Consider `COc1cc(-c2ccnn2C)c(F)cc1Nc1nc(NC2CCCCC2)c2c(C#N)c[nH]c2n1` [Example 105, 4-(cyclohexylamino)-2-((5-fluoro-2-methoxy-4-(1-methyl-1H-pyrazol-5-yl)phenyl)amino)-7H-pyrrolo[2,3-d] pyrimidine-5-carbonitrile], for which the GI50 in the test with MDA-MB-231 cells and in the test with SHP-77 was 100 to 1000 nM in each case. On TTK, this compound displayed an IC50 of 50 to 200 nM.

By GI50 is commonly meant the concentration that inhibits growth by half. Low values mean greater sensitivity of the cells, high ones lower sensitivity of the cells. One may read the IC50 as the concentration that gives 50% inhibition. Lower therefore signals greater potency.
